In experiment [1] the test system is other lysosomal glycosidases. The experiment can be described thus: Effects on other lysosomal glycosidases in Gaucher fibroblasts. Format: cell-based, human. Conditions: for Effects on the activity of other glycosidases: Gaucher fibroblasts, Table 2.
Experiment [2] concerns the target T1, α-Glucosidase (Homo sapiens, UniProt P10253).
T1 construct: endogenous in cells; host or cells: fibroblasts of Gaucher patients (type 1, 2, 3)
The experiment can be described thus: α-Glucosidase activity in Gaucher fibroblasts. It is filed as cell-based. The procedure:
(§1) The tests were carried out under the conditions described in: Sawkar, A. R.; Cheng, W.-C.; Beutler, E.; Wong, C.-H.; Balch, W. E.; Kelly, J. W. Chemical chaperones increase the cellular activity of N370S beta-glucosidase: a therapeutic strategy for Gaucher's disease. Proc. Natl. Acad. Sci. U.S.A. 2002, 99, 15428-15433.

Experiment [3] addresses T2, β-glucosidase Caldocellum saccharolyticum (Caldicellulosiruptor saccharolyticus, UniProt P10482).
T2 construct: purchased Sigma Chemical Co
The experiment can be described thus: Inhibition of Caldocellum saccharolyticum β-glucosidase. It is filed as biochemical. From the text: (§2) The α-glucosidases of rice and of yeast, as well as the β-glucosidases of sweet almond and Caldocellum saccharolyticum are obtained from Sigma Chemical Co. ‘Brush border’ membranes prepared from rat small intestine according to Kessler's method (Kessler, M.; Acuto, O.; Strelli, C.; Murer, H.; Semenza, G. A. Biochem. Biophys. Acta 1978, 506, 136) were used as a source of intestinal maltase, sucrase and isomaltase. The activities of rice α-glucosidase as well as of the intestinal glucosidases were determined using an appropriate disaccharide as substrate. The D-glucose thus released was assayed by colorimetry using the Wako glucose B-test (Wako Pure Chemical Ind., Japan). The activities on the other glycosidases were determined using the appropriate p-nitrophenyl glycoside as a substrate with the optimum pH of each enzyme. The reaction is stopped by adding 400 mM Na2CO3. The p-nitrophenol thus released was assayed by spectrophotometry at 400 nm. For the β-glucocerebrosidase, the technique used is that described in Kato, A.; Kato, N.; Kano, E.; Adachi, I.; Ikeda, K.; Yu, L.; Okamoto, T.; Banba, Y.; Ouchi, H.; Takahata, H.; Asano, N. Biological properties of D- and L-1-deoxyazasugars. J. Med. Chem. 2005, 48, 2036-2044.

The target of experiment [4] is T3, sucrase (Rattus norvegicus, UniProt P23739).
T3 construct: from tissue; host or cells: rat small intestine brush border membranes
T3 sequence (P23739 1-1013 limits assumed): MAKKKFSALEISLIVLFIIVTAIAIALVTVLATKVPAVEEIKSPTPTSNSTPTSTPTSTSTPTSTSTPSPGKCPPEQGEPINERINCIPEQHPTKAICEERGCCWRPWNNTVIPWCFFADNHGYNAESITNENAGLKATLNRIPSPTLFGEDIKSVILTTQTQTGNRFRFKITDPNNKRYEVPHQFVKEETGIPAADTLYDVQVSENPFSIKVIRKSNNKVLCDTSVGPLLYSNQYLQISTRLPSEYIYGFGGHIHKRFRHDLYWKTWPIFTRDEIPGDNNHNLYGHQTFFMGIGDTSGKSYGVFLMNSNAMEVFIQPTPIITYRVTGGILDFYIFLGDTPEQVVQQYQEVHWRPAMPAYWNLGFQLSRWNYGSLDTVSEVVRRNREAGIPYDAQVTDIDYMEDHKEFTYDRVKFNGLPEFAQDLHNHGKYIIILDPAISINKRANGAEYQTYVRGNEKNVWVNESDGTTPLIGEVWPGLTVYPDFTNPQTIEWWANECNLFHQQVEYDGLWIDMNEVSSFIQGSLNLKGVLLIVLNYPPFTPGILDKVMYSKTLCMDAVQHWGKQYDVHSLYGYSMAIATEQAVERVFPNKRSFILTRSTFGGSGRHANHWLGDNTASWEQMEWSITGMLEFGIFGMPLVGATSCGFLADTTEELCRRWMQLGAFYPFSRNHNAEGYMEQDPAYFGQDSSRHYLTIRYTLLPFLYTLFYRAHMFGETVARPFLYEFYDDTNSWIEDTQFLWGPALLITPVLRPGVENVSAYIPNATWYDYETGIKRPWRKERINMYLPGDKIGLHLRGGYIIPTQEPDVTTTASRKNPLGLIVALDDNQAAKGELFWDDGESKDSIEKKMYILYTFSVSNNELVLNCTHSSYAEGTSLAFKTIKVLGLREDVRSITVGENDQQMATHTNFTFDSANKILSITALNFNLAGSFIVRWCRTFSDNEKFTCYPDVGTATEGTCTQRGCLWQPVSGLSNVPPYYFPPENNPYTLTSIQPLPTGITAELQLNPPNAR
T3 sequence (P23739 1014-1841 limits assumed): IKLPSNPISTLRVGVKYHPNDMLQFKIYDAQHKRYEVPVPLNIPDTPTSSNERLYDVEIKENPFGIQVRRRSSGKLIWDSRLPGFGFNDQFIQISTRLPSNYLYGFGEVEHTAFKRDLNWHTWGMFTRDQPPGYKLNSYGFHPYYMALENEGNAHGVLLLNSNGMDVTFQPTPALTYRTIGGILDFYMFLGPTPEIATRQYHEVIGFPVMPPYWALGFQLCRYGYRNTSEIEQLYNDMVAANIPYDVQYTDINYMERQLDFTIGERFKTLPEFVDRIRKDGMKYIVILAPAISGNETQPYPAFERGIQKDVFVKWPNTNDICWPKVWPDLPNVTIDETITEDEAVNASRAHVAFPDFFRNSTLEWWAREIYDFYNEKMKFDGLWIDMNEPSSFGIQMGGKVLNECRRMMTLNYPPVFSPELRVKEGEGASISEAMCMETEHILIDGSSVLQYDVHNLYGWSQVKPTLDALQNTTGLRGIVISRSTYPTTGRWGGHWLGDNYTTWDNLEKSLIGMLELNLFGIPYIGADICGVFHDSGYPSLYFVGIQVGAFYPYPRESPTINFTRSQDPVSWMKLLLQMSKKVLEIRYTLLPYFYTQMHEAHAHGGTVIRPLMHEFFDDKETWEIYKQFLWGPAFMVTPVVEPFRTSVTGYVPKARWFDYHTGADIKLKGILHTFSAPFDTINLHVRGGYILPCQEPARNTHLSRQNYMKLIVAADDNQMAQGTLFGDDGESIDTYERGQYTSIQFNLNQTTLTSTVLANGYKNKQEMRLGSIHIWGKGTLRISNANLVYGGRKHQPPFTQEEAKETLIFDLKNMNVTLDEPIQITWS
The experiment in a line: Inhibition of rat intestinal sucrase. It is filed as biochemical. The settings on record: rat intestine; read-out: IC50 α-glucosidase sucrase.
Source text: as §2

The target in experiment [5] is T4, isomaltase (Rattus norvegicus, UniProt P23739).
T4 construct: from tissue; host or cells: rat small intestine brush border membranes
T4 sequence (P23739 1-1013 limits assumed): as the sequence (P23739 1-1013 limits assumed) above
T4 sequence (P23739 1014-1841 limits assumed): as the sequence (P23739 1014-1841 limits assumed) above
The experiment in a line: Inhibition of rat intestinal isomaltase. It is filed as biochemical. Conditions: rat intestine; read-out: IC50 α-glucosidase isomaltase.
Source text: as §2

The target of experiment [6] is β-glucosidase sweet almond. The experiment can be described thus: Inhibition of sweet almond β-glucosidase. It is filed as biochemical.
Source text: as §2

The target in experiment [7] is T5, rice α-glucosidase (Oryza sativa subsp. japonica, UniProt Q653V7).
T5 construct: purchased Sigma Chemical Co
T5 sequence (Q653V7 34-885): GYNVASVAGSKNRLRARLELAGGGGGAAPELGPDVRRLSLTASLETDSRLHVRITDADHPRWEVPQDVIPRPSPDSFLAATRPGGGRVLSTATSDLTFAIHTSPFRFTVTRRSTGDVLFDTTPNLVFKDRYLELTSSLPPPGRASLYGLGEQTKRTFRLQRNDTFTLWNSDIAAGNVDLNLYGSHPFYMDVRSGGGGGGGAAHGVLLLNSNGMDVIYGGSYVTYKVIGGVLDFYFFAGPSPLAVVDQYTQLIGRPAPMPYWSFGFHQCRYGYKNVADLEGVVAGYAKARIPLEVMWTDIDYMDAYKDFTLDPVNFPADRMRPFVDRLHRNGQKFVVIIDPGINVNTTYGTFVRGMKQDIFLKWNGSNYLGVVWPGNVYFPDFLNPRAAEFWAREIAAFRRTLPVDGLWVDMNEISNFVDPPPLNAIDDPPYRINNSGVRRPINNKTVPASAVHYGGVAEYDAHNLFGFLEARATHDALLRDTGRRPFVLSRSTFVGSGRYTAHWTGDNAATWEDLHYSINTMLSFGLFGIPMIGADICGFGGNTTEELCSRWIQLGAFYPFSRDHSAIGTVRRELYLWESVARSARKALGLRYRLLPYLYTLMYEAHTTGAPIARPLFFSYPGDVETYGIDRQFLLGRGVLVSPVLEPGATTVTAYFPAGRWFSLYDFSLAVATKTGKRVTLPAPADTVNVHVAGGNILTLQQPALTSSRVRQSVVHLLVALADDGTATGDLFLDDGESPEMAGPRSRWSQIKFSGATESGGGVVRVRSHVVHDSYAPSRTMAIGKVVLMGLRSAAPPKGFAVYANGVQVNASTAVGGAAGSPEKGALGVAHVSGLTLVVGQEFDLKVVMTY
The experiment can be described thus: Inhibition of rice α-glucosidase (disaccharide substrate, glucose colorimetry). Format: biochemical. Conditions: rice enzyme.
Source text: as §2

The target of experiment [8] is maltase. The experiment can be described thus: Inhibition of rat intestinal maltase. It is filed as biochemical. The settings on record: rat intestine; read-out: IC50 α-glucosidase maltase.
Source text: as §2

The target of experiment [9] is T6, α-Mannosidase (Homo sapiens, UniProt O00754).
T6 construct: endogenous in cells; host or cells: fibroblasts of Gaucher patients (type 1, 2, 3)
T6 sequence (O00754 50-1011): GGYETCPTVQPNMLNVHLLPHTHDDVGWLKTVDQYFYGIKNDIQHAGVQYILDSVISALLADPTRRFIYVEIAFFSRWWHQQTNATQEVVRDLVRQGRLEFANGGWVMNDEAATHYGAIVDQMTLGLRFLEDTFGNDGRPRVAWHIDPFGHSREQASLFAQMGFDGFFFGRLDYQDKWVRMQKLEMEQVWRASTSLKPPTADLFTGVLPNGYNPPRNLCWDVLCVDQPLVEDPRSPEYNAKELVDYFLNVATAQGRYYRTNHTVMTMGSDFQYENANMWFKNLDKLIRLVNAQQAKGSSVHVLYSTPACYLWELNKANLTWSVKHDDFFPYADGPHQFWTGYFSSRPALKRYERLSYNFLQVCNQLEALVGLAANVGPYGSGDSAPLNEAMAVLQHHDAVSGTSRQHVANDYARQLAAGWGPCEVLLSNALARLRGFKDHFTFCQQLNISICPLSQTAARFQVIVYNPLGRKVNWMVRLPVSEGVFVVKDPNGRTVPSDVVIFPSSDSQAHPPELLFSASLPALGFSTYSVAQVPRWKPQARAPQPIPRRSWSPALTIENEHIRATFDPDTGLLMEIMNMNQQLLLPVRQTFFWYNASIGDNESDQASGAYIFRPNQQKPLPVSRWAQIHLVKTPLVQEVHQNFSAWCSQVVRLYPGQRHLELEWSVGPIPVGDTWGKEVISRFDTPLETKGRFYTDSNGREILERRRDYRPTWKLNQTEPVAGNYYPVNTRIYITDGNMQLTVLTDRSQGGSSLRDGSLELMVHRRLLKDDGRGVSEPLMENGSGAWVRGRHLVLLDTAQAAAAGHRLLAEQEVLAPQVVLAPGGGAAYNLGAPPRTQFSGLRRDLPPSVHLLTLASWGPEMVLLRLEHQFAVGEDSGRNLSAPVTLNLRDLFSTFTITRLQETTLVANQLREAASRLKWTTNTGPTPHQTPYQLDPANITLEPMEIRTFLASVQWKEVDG
The experiment can be described thus: α-Mannosidase activity in Gaucher fibroblasts. It is filed as cell-based. As to the method:
as §1

Experiment [10] relates to β-glucocerebrosidase. The experiment can be described thus: Intracellular β-glucocerebrosidase activity in type 3 Gaucher fibroblasts. It is filed as cell-based, human. The settings on record: factor of residual β-glucocerebrosidase activity, 10 nM.
Experiment [11] deals with β-glucocerebrosidase. The experiment can be described thus: Intracellular β-glucocerebrosidase activity in type 1 Gaucher fibroblasts. Conditions: factor of residual β-glucocerebrosidase activity, 10 nM. Format: cell-based, human.
Experiment [12] concerns the target T7, human β-glucocerebrosidase (Homo sapiens, UniProt P04062).
T7 sequence (P04062 40-536): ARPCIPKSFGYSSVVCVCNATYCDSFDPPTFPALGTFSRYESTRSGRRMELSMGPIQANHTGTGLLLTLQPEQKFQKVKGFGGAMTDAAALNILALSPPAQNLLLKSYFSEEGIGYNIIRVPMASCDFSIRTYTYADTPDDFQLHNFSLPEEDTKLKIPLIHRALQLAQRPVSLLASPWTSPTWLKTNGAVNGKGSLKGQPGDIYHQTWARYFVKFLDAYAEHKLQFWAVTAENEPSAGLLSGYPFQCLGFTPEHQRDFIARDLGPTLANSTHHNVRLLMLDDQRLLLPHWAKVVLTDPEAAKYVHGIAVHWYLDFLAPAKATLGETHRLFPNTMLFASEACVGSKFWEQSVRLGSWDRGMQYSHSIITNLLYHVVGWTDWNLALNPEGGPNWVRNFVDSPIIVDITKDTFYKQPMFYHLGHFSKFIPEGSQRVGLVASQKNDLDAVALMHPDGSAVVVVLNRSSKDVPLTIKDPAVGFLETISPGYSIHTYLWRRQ
The experiment in a line: Inhibition tests on human β-glucocerebrosidase. Conditions: for IC50: read-out: IC50 β-glucocérébrosidase. Format: biochemical.

Experiment [13] concerns human β-glucocerebrosidase. The experiment can be described thus: Intracellular β-glucocerebrosidase activity in fibroblasts of Gaucher patients (type 1, 2 or 3). Format: cell-based. The settings on record: fibroblasts type 1, 2 or 3; very low quantities.
Experiment [14] concerns α-glucosidases. The experiment can be described thus: Activity on the different α-glucosidases tested. Format: biochemical.
Source text: as §2

Where [15] appears, read: type 2 Gaucher fibroblasts, 50 μM.

Read-outs that look alike come from different tables or passages of the source.

T2 sequence (P10482 whole entry): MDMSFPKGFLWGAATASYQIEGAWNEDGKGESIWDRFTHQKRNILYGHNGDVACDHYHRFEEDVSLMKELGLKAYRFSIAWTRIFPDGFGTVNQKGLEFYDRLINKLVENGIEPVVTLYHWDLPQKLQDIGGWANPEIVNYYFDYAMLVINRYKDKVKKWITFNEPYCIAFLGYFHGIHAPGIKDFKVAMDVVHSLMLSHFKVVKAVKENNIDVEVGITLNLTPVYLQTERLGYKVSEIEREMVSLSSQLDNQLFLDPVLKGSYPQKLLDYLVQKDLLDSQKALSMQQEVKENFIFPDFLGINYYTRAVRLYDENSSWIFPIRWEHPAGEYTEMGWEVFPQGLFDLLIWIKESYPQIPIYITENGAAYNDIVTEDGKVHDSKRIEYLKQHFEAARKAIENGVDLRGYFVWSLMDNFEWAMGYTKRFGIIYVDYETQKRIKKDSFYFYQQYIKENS

For orientation: inhibition means the relative decrease from the control value, in per cent. For orientation: IC50 means the concentration that inhibits the measured activity by half. Consider `CCCCCCCCCN1C[C@H](O)[C@@H](O)[C@H](O)[C@H]1CO` [2′, N-nonyl-1-deoxynojirimycin, reference compound], for which the “Effects on the activity of other glycosidases” value in experiment [1] is “Marked effects”. The compound further yielded an inhibition at 50 µM in experiment [2] (type 1 Gaucher fibroblasts, 50 μM) of 70%. The α-Glucosidase inhibition result in [2] (setting [15]) and in [2] (type 3 Gaucher fibroblasts) was “significant inhibition” in each case. The IC50 in experiment [3] was 80 µM; in [4], 0.66 µM; in experiment [5] it was 0.23 µM; in [6], 150 µM; in experiment [7], 0.08 µM; in experiment [8], 1.3 µM. The α-Mannosidase inhibition entry in [9] (type 1 Gaucher fibroblasts) is given as “slight inhibition”; in experiment [9] (setting [15]), “slight inhibition”; in experiment [9] (type 3 Gaucher fibroblasts) it was “no inhibition”.
In general, Ki refers to the dissociation constant of the complex between target and ligand, obtained from inhibition or displacement. Turning to `CCCCCCCCC[C@H]1NC[C@@H](O)[C@H](O)[C@H]1O` [Compound 1′a, α-1-C-nonyliminoxylitol], the “Increase in the enzymatic activity (type 3 fibroblasts)” value is on record as 1.9 in experiment [10] and “×1.9 to 10 nM” in [10] (listed as drawing 105). For the same compound, the “action on other lysosomal glycosidases” value in experiment [1] (10 nM) is reported as “without inhibiting the action of other lysosomal glycosidases”. Further, the “Effects on the activity of other glycosidases” value in [1] is “No effect”. Moreover, the α-Glucosidases inhibition result in experiment [2] (type 1-3 Gaucher fibroblasts) is on record as “no inhibition”. Besides, the “Increase in the enzymatic activity (type 1 fibroblasts)” value in experiment [11] is given as 1.8; in [11] (listed as drawing 105) it was “×1.8 to 10 nM”. In addition, the IC50 in experiment [12] (human enzyme) was 0.0068 µM; in experiment [3] it was 800 µM; in [4], more than 1000 µM; in experiment [5] it was more than 1000 µM; in experiment [6], 1.9 µM; in experiment [7], more than 1000 µM. The IC50 in experiment [8] is more than 1000 µM. The “times more active than N-nonyl-1-deoxynojirimycin 2′” value in [12] (human β-glucocerebrosidase) is 150 times. In addition, the Ki in experiment [12] (read-out: inhibition constant (Ki) human β-glucocerebrosidase) came out at 0.002 µM. Also, the “residual enzymatic activity of human β-glucocerebrosidase” value in experiment [13] is “double”. The “activity on the different α-glucosidases tested” value in experiment [14] is reported as “no activity”. In addition, the α-Mannosidase inhibition entry in experiment [9] (type 1-3 Gaucher fibroblasts) is “no inhibition”.
For the compound `CCCCCCCCCCCC[C@H]1NC[C@@H](O)[C@H](O)[C@H]1O` [Compound 1′b], in experiment [12] (human enzyme, Table 1, read-out: value of Ki β-glucocérébrosidase (in brackets)), the Ki is 0.031 µM. The IC50 in experiment [12] (human enzyme) worked out at 0.012 µM.

The values are drawn from patent US20080269285A1, “Novel Compounds of the Family of Iminosugars, Uses Thereof for Trewating Lysosomal Diseases, and Method for Preparing Same” (CENTRE NATIONAL DE LA RECHERCHE SCIENTIFIQUE, priority 2005, published 2008).
